Test results published in patent US20240368145A1, “METHODS FOR TREATING CANCER” (IMMUNIC AG, priority 2021, published 2024).

Experiments:
Type in all cases: cell-based
NKX3.1 mRNA = assay: Expression of AR target genes (qRT-PCR) in 22Rv1: NKX3.1; details: Homo sapiens; 22Rv1, 1 μM, 48h; relative to vehicle control (DMSO)
Protocol: (§1) The prostate cancer cell line 22Rv1 was treated for 48h with 1 μM Example compound 1, 1/1, 2/1, 2/2, 2/3, 2/4, 2/5, 2/6, 2/7, 2/8, 2/9 and 2/10 and reference compounds SR2211 and XY018. RNA was extracted using the RNA isolation kit XS (Macherey-Nagel) and following the manufacture's manual. RNA quantity was measured with the Nanodrop before reverse transcription using Superscript II (Invitrogen #100004925). For the quantitative real-time PCR with SYBR-Green (Qiagen #204074), the following primers were used:
(§2) qRT-PCR was performed using SYBR-Green (Qiagen #204074) reagents in a PCR cycler (Gorbett Research) Rotor Gene RG3000 with the following program: denaturation for 5′ at 95° C.; 40 cycles of 20″ at 95° C. and 15″ at 60° C.″ and at the end of the last cycle, the melting temperature of the products was determined by gradually increasing from 60° C. to 99° C. CT values from all samples were normalized to reference (housekeeping) genes using the mean CT value of the GAPDH and YWHAZ (reference genes). Next the values are put relative to the untreated control (vehicle/DMSO).

AR-V7 mRNA = assay: Androgen receptor RNA level expression (qRT-PCR) in 22Rv1: AR-V7; details: 22Rv1, 1 μM, 48 h; for mrna remaining at 1 µM: Homo sapiens, normalized to untreated control (vehicle/DMSO)
Protocol: (§3) The prostate cancer cell line 22Rv1 was treated for 48 h with 1 μM Example compound 1, 1/1, 1/2, 2/1, 2/2, 2/3, 2/4, 2/5, 2/6, 2/7, 2/8, 2/9 and 2/10 and the reference compounds SR2211 and XY018 (Nat. Med. 2016; 22:488). RNA was extracted using the RNA isolation kit XS (Macherey-Nagel) and following the manufacture's manual. RNA quantity was measured with the Nanodrop before reverse transcription using Superscript II (Invitrogen #100004925). For the quantitative real-time PCR with SYBR-Green (Qiagen #204074), the following primers were used: AR forward-ACATCAAGGAACTCGATCGTATCATTGC and reverse-TTGGGCACTTGCACAGAGAT, AR-V7: forward-CCATCTTGTCGTCTTCGGAAATGTTATGAAGC and reverse-TTTGAATGAGGCAAGTCAGCCTTTCTT. The qRT-PCR proceeded as follows: denaturation for 5 min 95° C.; 40 cycles of “20 sec at 95° C. and 15 sec at 60° C.” and at the end of the last cycle, the melting temperature of the products was determined by gradually increasing it from 60° C. to 99° C. CT values from all samples were normalized to two different reference (housekeeping) genes using the mean CT value of the GAPDH and YWHAZ (reference genes). Next the values are normalized to the untreated control (vehicle/DMSO).

IL-17A = assay: Cytokine assay, human PBMC stimulated with PHA: IL-17A; details: PHA-activated, 48 hours, read-out: IL-17A inhibition (IC50 range)
Protocol: (§4) Peripheral blood mononuclear cells (PBMC) from healthy human donors were purified using Accuspin™ System-Histopaque-1077 (Sigma) according to the protocol recommended by the manufacturer. Purified PBMC were then washed twice with phosphate-buffered saline (PBS) and resuspended in RPMI1640 culture medium supplemented with 10% dialyzed heat inactivated fetal calf serum, 1.5 mM L-glutamine, 100 U penicillin/mL and […] streptomycin/mL (all from PAN Biotech, Aidenbach, Germany). For stimulation, PBMC were seeded at 1×10^5 cells/well, activated with 2 gg/mL phytohaemagglutinin (PHA, Sigma) and incubated with the test compounds for 48 hours. IL-17A, IL-17F and INFγ were then determined in the culture supernatant using a Luminex BioPlex system, following the manufacturer's instructions (BioRad, Munich, Germany). To determine the IC50, compounds were titrated semilogarithmically.
(§5) Cytokines were determined in the aforementioned culture supernatant using the following methods: IL-17A was measured using the human homodimer IL-17A ELISA Ready Set Go Kit from cBioscience (Frankfurt, Germany); IL-17F using the human IL-17F ELI-Pair from Holzel Diagnostica GmbH (K51n, Germany); and IFNγ using the OptEIA human IFN-g ELISA from BD Bioscience (Heidelberg, Germany), all following the manufacturer's instructions.

[1] = tested on: full length AR (AR-FL) mRNA; assay: Androgen receptor RNA level expression (qRT-PCR) in 22Rv1: AR-FL; details: 22Rv1, 1 μM, 48 h; for mrna remaining at 1 µM: Homo sapiens, normalized to untreated control (vehicle/DMSO)
Protocol: as §3

FKBP5 mRNA = assay: Expression of AR target genes (qRT-PCR) in 22Rv1: FKBP5; details: Homo sapiens; 22Rv1, 1 μM, 48h; relative to vehicle control (DMSO)
Protocol: as §1, §2

IFNγ = assay: Cytokine assay, human PBMC stimulated with PHA: IFNγ; details: PHA-activated, 48 hours, read-out: IFNγ inhibition (IC50 range)
Protocol: as §4, §5

IL-17F = assay: Cytokine assay, human PBMC stimulated with PHA: IL-17F; details: PHA-activated, 48 hours, read-out: IL-17F inhibition (IC50 range)
Protocol: as §4, §5

KLK2 mRNA = assay: Expression of AR target genes (qRT-PCR) in 22Rv1: KLK2; details: 22Rv1, 1 μM; for KLK2 mRNA level expression: 48 h; for mrna remaining at 1 µM: Homo sapiens, 48h, relative to vehicle control (DMSO)
Protocol: as §1, §2

RORγt = target: T1, RORγt (Homo sapiens, UniProt P51449); assay: RORγt inhibition, Indigo Biosciences Human RAR-related Orphan Receptor, Gamma Reporter Assay System; details: luciferase reporter cells, 22-24 h incubation; read-out: IC50 range, RORγt assay
T1 sequence (P51449 269-518 limits assumed): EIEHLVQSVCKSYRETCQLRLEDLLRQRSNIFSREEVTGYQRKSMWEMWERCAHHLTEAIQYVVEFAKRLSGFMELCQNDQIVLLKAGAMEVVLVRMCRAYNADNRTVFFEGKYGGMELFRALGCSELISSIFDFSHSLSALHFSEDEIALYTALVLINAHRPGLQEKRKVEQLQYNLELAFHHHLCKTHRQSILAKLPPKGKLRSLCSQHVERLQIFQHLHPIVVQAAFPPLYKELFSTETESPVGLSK
Protocol: The in vitro inhibition of RORγt was measured using Indigo Biosciences Human RAR-related Orphan Receptor, Gamma Reporter Assay System (Product #11304001-32) as described in the technical manual. In brief, 200 μL of Reporter Cells is dispensed into wells of the assay plate and preincubated for 4-6 h. Following the pre-incubation period, culture media are discarded and 200 μL/well of the prepared 1×-concentration treatment media are added. Following 22-24 h incubation, treatment media are discarded and Luciferase Detection Reagent is added. The intensity of light emission (in units of ‘Relative Light Units’; RLU) from each assay well is quantified using a plate-reading luminometer. Average values of RLU were determined for each treatment concentration. Non-linear regression analyses were performed and IC50 values determined using GraphPad Prism software. Provided inverse-agonists ursolic acid served as positive control.

[2] = tested on: prostate cancer cell line 22RV1; assay: Oncolead sulforhodamin B growth inhibition, 22RV1; details: Homo sapiens, sulforhodamin B assay, 72 and 120 h treatment, read-out: GI50 range 22RV1
Protocol: (§6) Cell growth was assessed by measuring protein content using sulforhodamin B. Growth inhibition was calculated by (TCMD−T0)/TNCT72h−T0)*100% with TCMD is the tumor growth at 72 h with the respective compound concentration. To is the protein content of the cell line before treatment and TNCT72h is the tumor growth of the DMSO control.

[3] = tested on: prostate cancer cell line PC3; assay: Oncolead sulforhodamin B growth inhibition, PC3; details: sulforhodamin B assay; 72 and 120 h treatment; read-out: GI50 range PC3
Protocol: as §6

[4] = tested on: prostate cancer cell line DU145; assay: Oncolead sulforhodamin B growth inhibition, DU145; details: Homo sapiens, DU-145; sulforhodamin B assay; 72 and 120 h treatment; read-out: GI50 range DU145
Protocol: as §6

[5] = tested on: prostate cancer cell line VCaP; assay: Oncolead sulforhodamin B growth inhibition, VCaP; details: Homo sapiens, VCaP; sulforhodamin B assay; 72 and 120 h treatment; read-out: GI50 range VCAP
Protocol: as §6

[6] = tested on: prostate cancer cell line LNCAP; assay: Oncolead sulforhodamin B growth inhibition, LNCAP; details: Homo sapiens, sulforhodamin B assay, 72 and 120 h treatment, read-out: GI50 range LNCAP
Protocol: as §6

SMILES	AR-V7 mRNA expression (AR-V7 mRNA)	IC50 (IL-17A) [nM]	full length AR (AR-FL) mRNA expression [1]	IC50 (IFNγ) [nM]	IC50 (IL-17F) [nM]	IC50 (RORγt) [nM]	GI50 [2] [nM]	GI50 [3] [nM]	GI50 [4] [nM]	GI50 [5] [nM]	GI50 [6] [nM]	mrna remaining at 1 µM (NKX3.1 mRNA) [%]	mrna remaining at 1 µM (AR-V7 mRNA) [%]	mrna remaining at 1 µM [1] [%]	mrna remaining at 1 µM (FKBP5 mRNA) [%]	KLK2 mRNA level expression (KLK2 mRNA)	mrna remaining at 1 µM (KLK2 mRNA) [%]
C[C@H](O)Cn1ncc(-c2onc(-c3cccc(C(=O)N4CCCC4)c3Cl)c2-c2ccncn2)c1C(F)(F)F [2/3]	strong reduction	25 to 100	strong reduction	25 to 100	25 to 100	–	–	–	–	–	–	35.7	25.5	43.4	24.5	strong inhibition	41.1
CC(C)(O)CCn1ncc(-c2onc(-c3cccc(OCCN4CCOCC4)c3Cl)c2-c2ncccn2)c1C(F)(F)F [2/7]	strong reduction	25 to 100	strong reduction	< 25	< 25	100 to 1000	–	–	–	–	–	30.5	22.8	42.5	27.5	strong inhibition	43.6
CCOC(=O)c1c(-c2cccc(OC)c2Cl)noc1-c1cnn(CCC(C)(C)O)c1C(F)(F)F [2/10]	strong reduction	< 25	strong reduction	< 25	< 25	–	–	–	–	–	–	32.2	22.7	53.1	27.7	strong inhibition	37.9
C[C@]1(O)C[C@@H](n2ncc(-c3onc(-c4c(F)cccc4Cl)c3-c3ccncn3)c2C(F)(F)F)C1 [2/4]	strong reduction	25 to 100	strong reduction	< 25	< 25	–	–	–	–	–	–	35.9	25.4	43.5	29.8	strong inhibition	42.6
COc1cccc(-c2noc(-c3cnn([C@H]4C[C@@](C)(O)C4)c3C(F)(F)F)c2COC2CC2)c1Cl [2/9]	strong reduction	< 25	strong reduction	< 25	< 25	–	–	–	–	–	–	48.2	29.3	49.9	31.5	–	41.2

Continued, in another order:

AR-V7 mRNA expression (AR-V7 mRNA)	IC50 (IL-17A) [nM]	full length AR (AR-FL) mRNA expression [1]	IC50 (IFNγ) [nM]	IC50 (IL-17F) [nM]	IC50 (RORγt) [nM]	GI50 [2] [nM]	GI50 [3] [nM]	GI50 [4] [nM]	GI50 [5] [nM]	GI50 [6] [nM]	SMILES	mrna remaining at 1 µM (NKX3.1 mRNA) [%]	mrna remaining at 1 µM (AR-V7 mRNA) [%]	mrna remaining at 1 µM [1] [%]	mrna remaining at 1 µM (FKBP5 mRNA) [%]	KLK2 mRNA level expression (KLK2 mRNA)	mrna remaining at 1 µM (KLK2 mRNA) [%]
–	–	–	–	–	< 10	–	–	–	–	–	Fc1cccc(Cl)c1-c1noc(-c2cnn(-c3cccc(Cl)c3)c2C(F)(F)F)c1COC1CC1 [Example 2, 3-(2-Chloro-6-fluorophenyl)-5-(1-(3-chlorophenyl)-5-(trifluoromethyl)-1H-pyrazol-4-yl)-4-(cyclopropoxymethyl)isoxazole]	–	–	–	–	–	–
strong reduction	–	strong reduction	–	–	10 to 100	–	–	–	–	–	CC(C)(O)CCn1ncc(-c2onc(-c3c(F)cccc3Cl)c2-c2ncccn2)c1C(F)F [Example 1/2, 4-(4-(3-(2-Chloro-6-fluorophenyl)-4-(pyrimidin-2-yl)isoxazol-5-yl)-5-(difluoromethyl)-1H-pyrazol-1-yl)-2-methylbutan-2-ol]	–	50.9	52.4	–	–	–
–	–	–	–	–	–	< 25	< 25	< 25	< 25	< 25	CC(=O)O[C@H]1C(=O)[C@@]2(C)[C@H]([C@H](OC(=O)c3ccccc3)[C@]3(O)C[C@H](OC(=O)[C@H](O)[C@@H](NC(=O)c4ccccc4)c4ccccc4)C(C)=C1C3(C)C)[C@]1(OC(C)=O)CO[C@@H]1C[C@@H]2O [paclitaxel, reference compound]	–	–	–	–	–	–
strong reduction	< 25	strong reduction	< 25	< 25	–	–	–	–	–	–	C[C@H](O)Cn1ncc(-c2onc(-c3c(F)cccc3Cl)c2-c2nccs2)c1C(F)(F)F [Example 2/1]	39.9	22.8	42.4	34.4	–	56.9
–	–	–	–	–	–	≥ 5000	≥ 5000	≥ 5000	100 to 5000	100 to 5000	CNC(=O)c1ccc(N2C(=S)N(c3ccc(C#N)c(C(F)(F)F)c3)C(=O)C2(C)C)cc1F [enzalutamide, reference compound]	–	–	–	–	–	–
